Measurements as given in patent US20140349955A1, “USE OF FLUORINE-CONTAINING WATER SOLUBLE PLATINUM COMPLEX IN PREPARING DRUGS FOR PREVENTION AND TREATMENT OF CANCERS” (GUDUI BIOPHARMA TECHNOLOGY INC., priority 2011, published 2014).

Assays:
Type in all cases: cell-based, human
Conditions in all cases: 96 h
[1] = tested on: A549; test: Synergistic cytotoxicity test (MTS), A549
Protocol: (§1) Containing 10% bovine fetal serum, 1 mM of sodium pyruvate, 2 mM of L-glutamine, 50 U/mL of penicillin, 50 μg/ mL of streptomycin.
(§2) Human tumor cells: du145-human prostate cancer; MCF-7-human breast cancer; SK0V3-human ovarian carcinoma, HT-29-human colon cancer; A549-human non-small cell lung cancer (adenocarcinoma), H460-human non-small cell lung cancer (large cell carcinoma), and animal tumor cells: L1210-mice leukemia cells used in the following activity test experiments were all purchased from Shanghai An Yan Commercial Trade Co., Ltd.
(§3) MTS test method was used in cytotoxicity assay. The tumor cells of logarithmic phase were collected, and then the concentration of cell suspension was adjusted, 100 μL of the cell suspension was added to each well, the cells were placed at 1000-10000 cells/well (edge well filled with sterile PBS). Cells were incubated at 37° C. with 5% CO2 to make cell monolayer overspread the bottom of each well (96-well flat-bottomed microplate). 100 μL of certain concentration solution of a mixture of the fluorine-containing water-soluble platinum complex with other antitumor agents was added to each well. Each condition was measured in five replicates. The microplate was incubated at 37° C. with 5% CO2 for 96 h and checked with inverted microscope. MTS working reagent: To 2 mL of MTS (2 mg/mL, prepared by DPBS) was added 100 μL of PMS (1 mg/mL, prepared by DPBS). The cell culture medium was discarded after centrifugation, the cell culture plate was carefully washed 2-3 times with PBS. Before detecting the absorbance value (OD), to each sample containing well was added 100 μL of cell culture medium, then 20 μL of MTS working reagent was added. After incubation at 37° C. with 5% CO2 for 2 h, the OD (optical density) value was detected at 490 nm.
(§4) Each of above experiment was repeated five times, and the cell viability was calculated according to the mean OD values.
(§5) Cell Viability (%)=(treated group OD value/control group OD value)×100
(§6) Control group: the conditions are the same as the above without adding the tested drug mixture (100 μL of culture medium was added in stead), and finally the absorbance was measured at 490 nm to obtain the OD value of the tumor cells.
(§7) Drug Group-1: only the fluorine-containing water-soluble platinum complex was added under the above conditions to obtain cell viability of tumor cells.
(§8) Drug Group-2: only the other chemotherapeutic drug (active ingredient) was added under the above conditions to obtain cell viability of tumor cells.
(§9) Drug Combination Group: the fluorine-containing water-soluble platinum complex and other chemotherapeutic drugs were added simultaneously under the above conditions to obtain cell viability of tumor cell. (2) Evaluation Method:
(§10) When the fluorine-containing water-soluble platinum complexes used in combination with other chemotherapy drugs, the inhibition effect on cancer cell proliferation is enhanced or synergistic, and the effect was calculated using the following formula:
(§11) Combination Effect (%)={[(A1-X)+(A2-X)]/(A1-A2)|}×100
(§12) wherein, A1 is the cell viability of drug group-1, A2 is the cell viability of drug group-2, X is the cell viability of drug combination group, (A1-A2)| is the absolute value of the cell viability difference between the two groups.
(§13) Calculated according to the above formula, when the results of [Combination Effect (%)]>+100%, that means the effect of inhibition on cell proliferation is enhanced or synergistic (3) Experimental Result: […]

[2] = tested on: SK0V3; test: Synergistic cytotoxicity test (MTS), SKOV3
Protocol: as §1, §2, §3, §4, §5, §6, §7, §8, §9, §10, §11, §12, §13

[3] = tested on: MCF7; test: Synergistic cytotoxicity test (MTS), MCF7
Protocol: as §1, §2, §3, §4, §5, §6, §7, §8, §9, §10, §11, §12, §13

[4] = tested on: HT29; test: Synergistic cytotoxicity test (MTS), HT29
Protocol: as §1, §2, §3, §4, §5, §6, §7, §8, §9, §10, §11, §12, §13

[5] = tested on: DU145; test: Synergistic cytotoxicity test (MTS), DU145
Protocol: as §1, §2, §3, §4, §5, §6, §7, §8, §9, §10, §11, §12, §13

[6] = tested on: H460; test: Synergistic cytotoxicity test (MTS), H460
Protocol: as §1, §2, §3, §4, §5, §6, §7, §8, §9, §10, §11, §12, §13

[7] = other chemotherapy drug (at its listed dosage) combined with Complex 2 (dosage: 1 μM)
[8] = other chemotherapy drug (at its listed dosage) combined with Complex 3 (dosage: 1 μM)
[9] = other chemotherapy drug (at its listed dosage) combined with Complex 2 (dosage: 1 μM), SLOV3
[10] = other chemotherapy drug (at its listed dosage) combined with Complex 3 (dosage: 1 μM), SlOV3
[11] = other chemotherapy drug (at its listed dosage) combined with Complex 5 (dosage: 1 μM), SLOV3
[12] = other chemotherapy drug (at its listed dosage) combined with Complex 6 (dosage: 1 μM), SLOV3
[13] = other chemotherapy drug (at its listed dosage) combined with Complex 5 (dosage: 1 μM)
[14] = other chemotherapy drug (at its listed dosage) combined with Complex 6 (dosage: 1 μM)

Structure (SMILES)	the effect of drug combination (Combination Effect) [1, 7]	the effect of drug combination (Combination Effect) [1, 8]	the effect of drug combination (Combination Effect) [2, 9]	the effect of drug combination (Combination Effect) [2, 10]	the effect of drug combination (Combination Effect) [2, 11]	the effect of drug combination (Combination Effect) [2, 12]	the effect of drug combination (Combination Effect) [3, 7]	the effect of drug combination (Combination Effect) [3, 8]	the effect of drug combination (Combination Effect) [3, 13]	the effect of drug combination (Combination Effect) [3, 14]	the effect of drug combination (Combination Effect) [4, 7]	the effect of drug combination (Combination Effect) [4, 8]	the effect of drug combination (Combination Effect) [4, 13]	the effect of drug combination (Combination Effect) [4, 14]	the effect of drug combination (Combination Effect) [5, 7]	the effect of drug combination (Combination Effect) [5, 8]	the effect of drug combination (Combination Effect) [5, 13]	the effect of drug combination (Combination Effect) [5, 14]	the effect of drug combination (Combination Effect) [6, 13]	the effect of drug combination (Combination Effect) [6, 14]
CCc1c2c(nc3ccc(OC(=O)N4CCC(N5CCCCC5)CC4)cc13)-c1cc3c(c(=O)n1C2)COC(=O)[C@]3(O)CC [Irinotecan]	⊚ (⊚ represents the effect of drug combination > 300%)	⊚ (⊚ represents the effect of drug combination > 300%)	⊚ (⊚ represents the effect of drug combination > 300%)	⊚ (⊚ represents the effect of drug combination > 300%)	⊚ (⊚ represents the effect of drug combination > 300%)	⊚ (⊚ represents the effect of drug combination > 300%)	○ (○ represents: 100% < the effect of drug combination < 300%)	○ (○ represents: 100% < the effect of drug combination < 300%)	○ (○ represents: 100% < the effect of drug combination < 300%)	○ (○ represents: 100% < the effect of drug combination < 300%)	⊚ (⊚ represents the effect of drug combination > 300%)	⊚ (⊚ represents the effect of drug combination > 300%)	⊚ (⊚ represents the effect of drug combination > 300%)	⊚ (⊚ represents the effect of drug combination > 300%)	○ (○ represents: 100% < the effect of drug combination < 300%)	○ (○ represents: 100% < the effect of drug combination < 300%)	○ (○ represents: 100% < the effect of drug combination < 300%)	○ (○ represents: 100% < the effect of drug combination < 300%)	⊚ (⊚ represents the effect of drug combination > 300%)	⊚ (⊚ represents the effect of drug combination > 300%)
C#Cc1cccc(Nc2ncnc3cc(OCCOC)c(OCCOC)cc23)c1 [Tarceva]	⊚ (⊚ represents the effect of drug combination > 300%)	⊚ (⊚ represents the effect of drug combination > 300%)	○ (○ represents: 100% < the effect of drug combination < 300%)	○ (○ represents: 100% < the effect of drug combination < 300%)	○ (○ represents: 100% < the effect of drug combination < 300%)	○ (○ represents: 100% < the effect of drug combination < 300%)	○ (○ represents: 100% < the effect of drug combination < 300%)	○ (○ represents: 100% < the effect of drug combination < 300%)	○ (○ represents: 100% < the effect of drug combination < 300%)	○ (○ represents: 100% < the effect of drug combination < 300%)	⊚ (⊚ represents the effect of drug combination > 300%)	⊚ (⊚ represents the effect of drug combination > 300%)	⊚ (⊚ represents the effect of drug combination > 300%)	⊚ (⊚ represents the effect of drug combination > 300%)	○ (○ represents: 100% < the effect of drug combination < 300%)	○ (○ represents: 100% < the effect of drug combination < 300%)	○ (○ represents: 100% < the effect of drug combination < 300%)	○ (○ represents: 100% < the effect of drug combination < 300%)	⊚ (⊚ represents the effect of drug combination > 300%)	⊚ (⊚ represents the effect of drug combination > 300%)
N.N.[Cl][Pt+2][Cl] [Transplatin]	⊚ (⊚ represents the effect of drug combination > 300%)	⊚ (⊚ represents the effect of drug combination > 300%)	○ (○ represents: 100% < the effect of drug combination < 300%)	○ (○ represents: 100% < the effect of drug combination < 300%)	○ (○ represents: 100% < the effect of drug combination < 300%)	○ (○ represents: 100% < the effect of drug combination < 300%)	⊚ (⊚ represents the effect of drug combination > 300%)	⊚ (⊚ represents the effect of drug combination > 300%)	⊚ (⊚ represents the effect of drug combination > 300%)	⊚ (⊚ represents the effect of drug combination > 300%)	⊚ (⊚ represents the effect of drug combination > 300%)	⊚ (⊚ represents the effect of drug combination > 300%)	⊚ (⊚ represents the effect of drug combination > 300%)	⊚ (⊚ represents the effect of drug combination > 300%)	○ (○ represents: 100% < the effect of drug combination < 300%)	○ (○ represents: 100% < the effect of drug combination < 300%)	○ (○ represents: 100% < the effect of drug combination < 300%)	○ (○ represents: 100% < the effect of drug combination < 300%)	⊚ (⊚ represents the effect of drug combination > 300%)	⊚ (⊚ represents the effect of drug combination > 300%)
